Source: patent US20260325605A1, “INHIBITORS” (Zealand Pharma A/S, priority 2022, published 2026)

Legend:
Kv1.3 = target: T1, Kv1.3 (Homo sapiens, UniProt P22001); assay: Patch clamp assay (QPatch), Kv1.3; assay type: cell-based; details: CHO cells stably expressing human Kv1.3, read-out: Potency IC50, Kv1.3
T1 construct: expressed in transfected cells

Kv1.1 = target: T2, Kv1.1 (Homo sapiens, UniProt Q09470); assay: Patch clamp assay (QPatch), Kv1.1; assay type: cell-based; details: for IC50: QPatch, CHO cells stably expressing human Kv1.1, read-out: Potency IC50, Kv1.1; for Selectivity Kv1.1/Kv1.3: ratio of IC50 Kv1.1/Kv1.3
T2 construct: expressed in transfected cells
T2 sequence (Q09470 whole entry): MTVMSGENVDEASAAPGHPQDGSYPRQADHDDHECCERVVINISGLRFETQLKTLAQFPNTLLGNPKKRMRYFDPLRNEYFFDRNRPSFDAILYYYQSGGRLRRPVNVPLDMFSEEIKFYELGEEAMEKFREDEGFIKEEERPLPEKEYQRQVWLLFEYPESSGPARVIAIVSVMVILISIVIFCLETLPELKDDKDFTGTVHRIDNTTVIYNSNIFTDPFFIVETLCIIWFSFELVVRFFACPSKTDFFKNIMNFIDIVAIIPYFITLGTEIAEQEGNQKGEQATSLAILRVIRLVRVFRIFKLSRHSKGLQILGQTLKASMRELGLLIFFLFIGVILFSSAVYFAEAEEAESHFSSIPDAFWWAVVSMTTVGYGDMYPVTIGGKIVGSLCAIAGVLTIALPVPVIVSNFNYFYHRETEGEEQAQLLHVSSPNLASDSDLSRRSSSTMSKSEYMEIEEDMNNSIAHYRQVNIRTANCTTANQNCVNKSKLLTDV
Method: (§1) Selectivity of Kv1.3 inhibitor peptides for Kv1.3 over other potassium ion channels (Kv1.1, Kv1.2 and Kv1.6) was determined using patch clamp assay.
(§2) Chinese Hamster Ovary (CHO) cell lines stably expressing exogenous human α-subunits of each potassium ion channel were grown and passaged under standard culture conditions.
(§3) The automated, chip-based planar patch clamp device QPatch® was used to quantitate the ionic currents. All recordings were made in the conventional whole-cell configuration after establishment of gigaohm seals. […] During experiments 0.1% (v/v) BSA was included as a vehicle in all external recording solutions. Currents were elicited from a holding potential of −80 mV using a voltage protocol, which shifted the voltage to 30 mV for 500 ms every 15 s.
(§4) Concentration-response relationships were established by cumulatively applying seven escalating concentrations of test sample to an individual cell with a recording period of 2 min per compound application.
(§5) The efficacy was determined as the mean charge for the last three sweeps at the end of each concentration application period from the cursor positions. The percent inhibition for each test dose application period was calculated as the reduction in mean cursor value (charge) relative to the cursor value measured at the end of the vehicle period and used to calculate the IC50 from the concentration response curve.

Kv1.2 = target: T3, Kv1.2 (Homo sapiens, UniProt P16389); assay: Patch clamp assay (QPatch), Kv1.2; assay type: cell-based; details: for IC50: QPatch, CHO cells stably expressing human Kv1.2, read-out: Potency IC50, Kv1.2; for Selectivity Kv1.2/Kv1.3: ratio of IC50 Kv1.2/Kv1.3
T3 construct: expressed in transfected cells
T3 sequence (P16389 whole entry): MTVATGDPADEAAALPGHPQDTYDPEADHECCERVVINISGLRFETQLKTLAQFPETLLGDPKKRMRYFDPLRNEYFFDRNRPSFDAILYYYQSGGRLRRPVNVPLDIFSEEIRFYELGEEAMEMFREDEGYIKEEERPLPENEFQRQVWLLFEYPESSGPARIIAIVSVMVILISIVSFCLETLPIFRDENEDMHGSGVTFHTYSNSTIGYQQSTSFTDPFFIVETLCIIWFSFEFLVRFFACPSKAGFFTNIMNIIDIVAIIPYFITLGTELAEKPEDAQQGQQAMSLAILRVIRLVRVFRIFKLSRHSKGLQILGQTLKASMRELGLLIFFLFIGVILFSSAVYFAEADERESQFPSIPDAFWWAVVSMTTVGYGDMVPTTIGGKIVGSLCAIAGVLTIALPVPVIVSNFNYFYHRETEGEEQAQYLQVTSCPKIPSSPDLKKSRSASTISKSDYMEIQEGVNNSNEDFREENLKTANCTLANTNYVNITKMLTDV

Kv1.6 = target: T4, Kv1.6 (Homo sapiens, UniProt P17658); assay: Patch clamp assay (QPatch), Kv1.6; assay type: cell-based; details: for IC50: QPatch, CHO cells stably expressing human Kv1.6, read-out: Potency IC50, Kv1.6; for Selectivity Kv1.6/Kv1.3: ratio of IC50 Kv1.6/Kv1.3
T4 construct: expressed in transfected cells
T4 sequence (P17658 whole entry): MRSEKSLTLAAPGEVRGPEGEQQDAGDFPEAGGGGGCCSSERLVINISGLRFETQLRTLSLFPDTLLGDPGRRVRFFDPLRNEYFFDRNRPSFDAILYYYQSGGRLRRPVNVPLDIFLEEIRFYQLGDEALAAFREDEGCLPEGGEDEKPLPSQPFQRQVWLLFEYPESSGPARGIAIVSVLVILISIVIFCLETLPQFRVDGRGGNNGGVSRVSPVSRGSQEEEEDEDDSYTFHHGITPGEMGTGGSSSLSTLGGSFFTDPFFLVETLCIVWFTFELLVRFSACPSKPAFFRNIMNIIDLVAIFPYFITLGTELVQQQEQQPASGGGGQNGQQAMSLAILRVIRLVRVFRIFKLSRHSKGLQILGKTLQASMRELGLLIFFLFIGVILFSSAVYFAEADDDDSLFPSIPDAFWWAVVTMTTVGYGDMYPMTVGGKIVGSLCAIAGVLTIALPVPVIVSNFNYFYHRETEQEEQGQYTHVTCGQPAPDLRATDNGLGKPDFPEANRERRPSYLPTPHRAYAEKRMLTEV
Method: as §1, §2, §3, §4, §5

[1] = test system: T-cell activation in rat whole blood; assay: Example 4: IL-17A release in thapsigargin stimulated rat whole blood; assay type: cell-based, rat (Lewis or Sprague-Dawley); details: 24 Hr, at least 2 replicates, unit inferred, read-out: IC50 (inhibition of IL-17A release)
In short: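 Heparinised whole blood from naïve Lewis or Sprague-Dawley rats preincubated ≥5 min at RT with peptide, then stimulated with thapsigargin (40 μM stock added as one quarter of well volume) for 24 h at 37 °C. Supernatant IL-17A measured by ELISA; IC50 from curves normalised to stimulated and unstimulated controls, ≥2 replicates.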

[2] = Example 6: Pharmacokinetic characterisation after s.c. administration; assay type: in vivo, rat (Sprague Dawley or Wistar); details: rat, 70 nmol/kg; for AUCINF / Cmax: plasma; for T1/2: plasma terminal elimination half-life
Method: Sprague Dawley or Wistar rats (males with a body weight of approximately 250-350 g) were given a single subcutaneous (s.c.) injection of each peptide to be tested.
Following s.c. administration of the selected peptides (dose 70 nmol/kg, dosing volume either 2 or 5 mL/kg), blood samples were drawn at 15 min, 30 min, 45 min, 60 min, 90 min, 2 h, 3 h, 4 h post-dose. At each sampling time point, samples from the rats were drawn by sublingual bleeding or by tail cut. After last sampling the rats were sacrificed by O2/CO2 anaesthesia. The dosing vehicle was 10 mM phosphate, 0.8% NaCl, 0.05% Polysorbate 20 (pH 6.0).
Plasma samples were analyzed after solid phase extraction (SPE) by liquid chromatography mass spectrometry (LC-MS/MS). Mean plasma concentrations were used for calculation of the pharmacokinetic parameters using the non-compartmental approach in Phoenix WinNonlin 6.4 or a later version. […]. AUCinf is the area under the plasma concentration−time curve extrapolated to infinity (AUCinf=AUClast+Clast/λz, where Clast is the last observed plasma concentration). Cmax is the maximum observed concentration, occurring at Tmax.

T1 sequence (P22001 whole entry): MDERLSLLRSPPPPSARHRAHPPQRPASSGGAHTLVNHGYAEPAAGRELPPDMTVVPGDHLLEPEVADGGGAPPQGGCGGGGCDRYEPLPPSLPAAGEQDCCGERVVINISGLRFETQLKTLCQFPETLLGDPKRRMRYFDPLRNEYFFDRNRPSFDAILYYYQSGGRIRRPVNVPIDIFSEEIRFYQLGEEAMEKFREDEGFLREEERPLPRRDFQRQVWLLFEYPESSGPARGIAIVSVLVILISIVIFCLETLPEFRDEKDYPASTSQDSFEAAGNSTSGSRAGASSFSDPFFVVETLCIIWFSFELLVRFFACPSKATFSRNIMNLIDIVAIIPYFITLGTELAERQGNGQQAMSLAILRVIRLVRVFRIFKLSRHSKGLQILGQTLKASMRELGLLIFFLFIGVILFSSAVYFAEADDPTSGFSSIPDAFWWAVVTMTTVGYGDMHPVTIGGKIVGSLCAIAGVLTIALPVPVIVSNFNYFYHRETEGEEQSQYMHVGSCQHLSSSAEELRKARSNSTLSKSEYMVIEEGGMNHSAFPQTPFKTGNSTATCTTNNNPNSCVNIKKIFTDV

Substance	IC50 (Kv1.3)	IC50 (Kv1.1)	Selectivity Kv1.1/Kv1.3 (Kv1.1)	IC50 (Kv1.2)	Selectivity Kv1.2/Kv1.3 (Kv1.2)	IC50 (Kv1.6)	Selectivity Kv1.6/Kv1.3 (Kv1.6)	IC50 [1]	AUCINF [2]	Cmax [2]	T1/2 [2]
H-NID[Nle]RC(1)SASVEC(2)KQKC(3)LKAIGSIFGKC(1)[Nle]NKKC(2)KC(3)YPR-OH [Peptide 98]	0.27 nM	> 3000 nM	>11300	2060 nM	7756	> 3000 nM	>11300	1.2 nM	0.085 µM·h	46.5 nM	65.4 min
H-NMDMRC(1)SASVEC(2)KQKC(3)LYAIGSIFGKC(1)MNKKC(2)KC(3)YPR-NH2 [Peptide 54]	0.29 nM	> 3000 nM	>10300	149 nM	514	> 3000 nM	>10300	–	0.0311 µM·h	50 nM	52.2 min
H-MDMRC(1)SASVEC(2)KQKC(3)LKAIGSIFGKC(1)MNKKC(2)KC(3)YPR-OH [Peptide 6]	0.38 nM	> 3000 nM	>7900	285 nM	747	> 3000 nM	>7900	–	0.0724 µM·h	48.4 nM	55.8 min
H-PIE[Nle]RC(1)SASVEC(2)KQKC(3)LAAIGSIFGKC(1)[Nle]NKKC(2)KC(3)YPR-OH [Peptide 105]	0.35 nM	> 3000 nM	>8600	1970 nM	5630	> 3000 nM	>8600	0.61 nM	0.1318 µM·h	58.6 nM	54.6 min
H-NIDMRC(1)SASVEC(2)KQKC(3)LKAIGSIFGKC(1)MNKKC(2)KC(3)YPR-OH [Peptide 9]	0.44 nM	> 3000 nM	>6800	376 nM	857	> 3000 nM	>6800	–	0.0983 µM·h	76.9 nM	37.2 min
H-P[Nle]E[Nle]RC(1)SASVEC(2)AQKC(3)LAAIGSIFGKC(1)[Nle]NKKC(2)KC(3)YPR-OH [Peptide 107]	0.55 nM	> 3000 nM	>5500	> 3000 nM	5500	> 3000 nM	>5500	1.2 nM	0.1766 µM·h	68.4 nM	81.6 min
H-NMDMRC(1)SASVEC(2)LQKC(3)LKAIGSIFGKC(1)MNKKC(2)KC(3)YPR-NH2 [Peptide 30]	0.4 nM	> 3000 nM	>7400	874 nM	2163	> 3000 nM	>7400	0.76 nM	–	–	–
H-N[Nle]S[Nle]RC(1)SASVEC(2)KQKC(3)LKAIGSIFGKC(1)[Nle]NKKC(2)KC(3)YPR-NH2 [Peptide 47]	0.32 nM	> 3000 nM	>9400	302 nM	943	1400 nM	4359	0.79 nM	–	–	–
H-[Nle]D[Nle]RC(1)SASVEC(2)KQKC(3)LKAIGSIFGKC(1)[Nle]NKKC(2)KC(3)YPR-OH [Peptide 97]	0.17 nM	> 3000 nM	>17800	1860 nM	11034	> 3000 nM	>17800	0.55 nM	–	–	–
H-NMDMRC(1)SASVEC(2)AQKC(3)LKAIGSIFGKC(1)MNKKC(2)KC(3)YPR-NH2 [Peptide 31]	0.14 nM	> 3000 nM	>22000	666 nM	4897	> 3000 nM	>22000	0.41 nM	0.0467 µM·h	33.3 nM	44.4 min
